Reference: PMC12606464, “Investigating NFE2L1 activators for targeted protein aggregate clearance: a follow-up study” (RSC Medicinal Chemistry, 2025)

Assays:
Type in all cases: cell-based
[1] = tested on: chymotrypsin-like activity of the 26S proteasome; assay: Proteasome activity assay in MCF7 cell lysates; conditions: for Geometric mean, Treatment (Control = 1): MCF7, Figure S6
Procedure: Building on previous findings, we investigated how selected RUN compounds influence proteasomal function itself. Specifically, we examined the chymotrypsin-like activity of the 26S proteasome following a 16 hour treatment with 7.5 μM RUN compounds in the HEK293 cell line. […] In addition, two other cell lines, MCF7 and SH-SY5Y, were measured (see the SI, Fig. S6).
Figure S6: RUN compounds enhance chymotrypsin-like activity of the 26S proteasome in […]
Cells were treated with 5 µM RUN compounds for 16 hours, with DMSO (0.5%) as the vehicle control. Proteasome chymotrypsin-like activity was measured in cell lysates at 37 °C. Four independent experiments were conducted. Statistical analysis was performed using ratio paired t-tests corrected for multiple comparisons with the Holm-Šídák's method (α = 0.05). Detailed results of the analysis are shown in Supplementary Table S16. […]
2.7 Proteasome activity assay
The corresponding cell lines (HEK293, MCF7, or SH-SY5Y) were seeded into 6-well plates and allowed to adhere overnight under standard culture conditions. On the following day, HEK293 cells were treated with 7.5 µM RUN compounds, whereas MCF7 and SH-SY5Y cells were treated with 5 µM RUN compounds, for 16 hours each. After treatment, cells were harvested, resuspended in lysis buffer (50 mM HEPES, pH 7.5; 5 mM EDTA; 150 mM NaCl; 2 mM ATP; 1% Triton), and centrifuged at 15,000 rpm for 15 minutes at 4 °C. The resulting lysates (25 µg total protein) were incubated with 200 µM of the fluorogenic substrate Suc-Leu-Leu-Val-Tyr-AMC (Bachem, I1395) in assay buffer (50 mM Tris, pH 8.0; 10 mM MgCl₂; 1 mM ATP; 1 mM DTT) at 37 °C. Free AMC release was detected by measuring fluorescence at 360/460 nm. Results of RUN compounds were compared to the DMSO control using a ratio paired t-test corrected for multiple comparisons with the Holm-Šídák's method (α = 0.05) in GraphPad Prism (v 10.6.1).
2.8 XBP1-endoplasmic reticulum (ER) stress reporter assay […]
Two sets of comparisons: 1) […]
treatment with MG132 inhibitor or RUN compounds with DMSO control, 2) RUN compounds vs MG132, were done by two-way repeated-measures ANOVA with Geisser–Greenhouse correction, followed by Dunnett’s multiple comparisons test with individual variances in […]
HCT116 parental cells (WT) and two independent DDI2 knockout clones (KO 04 and KO 11), in which NFE2L1 activation is impaired, were transiently transfected with plasmids encoding either a non-aggregating EGFP-HttQ23 or an aggregation-prone EGFP-HttQ74 construct using Lipofectamine 2000 (Thermo Fisher Scientific) according to the manufacturer’s

reactive oxygen species = assay: DCFH-DA oxidative stress detection; conditions: DCFH-DA assay, Figure S8
Procedure: 2.10 Oxidative stress detection
Cells were cultured in 96-well plates and washed with prewarmed HBSS buffer. A solution of 2',7'-dichlorofluorescein-diacetate (DCFH-DA) (100 μM) was added to the cells, followed by 30 minutes of incubation. […]
dissolved in HBSS buffer for an additional 2 hours. Control cells received vehicle (DMSO), or […]

[2] = tested on: ubiquitin-proteasome system; assay: Ub-G76V-GFP reporter degradation in U2OS cells; conditions: U2OS cells, Fig. S3
Description: We next examined whether the selected RUN compounds activate the NFE2L1 pathway in a stress-independent manner, while preserving normal ubiquitin-dependent proteasomal degradation. This distinction is crucial, as the therapeutic benefit of NFE2L1 activation lies in its ability to alleviate proteotoxic stress and target disease-related proteins for degradation without compromising normal proteostasis. To assess this, U2OS cells stably expressing the short-lived fluorescent reporter Ub-G76V-GFP were treated with various concentrations of RUN compounds. […] We also examined whether compound-induced activation of NFE2L1 could be attributed to the generation of reactive oxygen species (ROS). To test this, the 3×PSMA4-ARE-LUC reporter assay was performed in the presence or absence of the antioxidant N-acetyl-L-cysteine (NAC). A decrease in reporter activity upon NAC treatment would indicate pathway activation through oxidative stress.
RUN compound (5 µM) for 8 hours. Fluorescence intensity was normalized to cell viability (measured by the alamarBlue assay) and compared to vehicle control (DMSO). Unlike the […]
as means ± SD from three independent experiments (n = 3). Statistical analysis was performed using a multiple unpaired t-test with Welch’s correction, with adjustment for multiple comparisons by the Holm–Šídák method (α = 0.05). ****p<0.0001. Detailed results of the analysis are shown in Supplementary Table S14. […]
2.4 Monitoring protein degradation using UbG76V-GFP reporter cells
U2OS cells stably expressing the Ub-G76V-GFP reporter were seeded into 96-well plates at and cultured overnight under standard conditions. On the following day, cells were treated with the indicated test compounds or DMSO vehicle control for 8 hours. After treatment, GFP fluorescence intensity was measured, providing a readout of proteasome-dependent degradation of the Ub-G76V-GFP substrate. Cell viability was then assessed in the same wells using the alamarBlue assay according to the manufacturer’s protocol. Viability values were used for normalization of fluorescence data to account for differences in cell number. Accumulation of GFP signal relative to DMSO-treated controls was interpreted as reduced degradation of UPS substrates, indicating potential effects of the compounds on the natural protein turnover.
Statistical comparison of RUN compounds with ASC-JM17 was performed using a multiple unpaired t-test with Welch’s correction, with adjustment for multiple comparisons by the Holm–Šídák method (α = 0.05) in GraphPad Prism (v 10.6.1). […]
RNA was extracted using […]
the RNeasy® Plus Micro Kit according to the manufacturer’s instructions. Complementary DNA (cDNA) was synthesized from RNA using either t he TATAA GrandScript cDNA Supermix (TATAA Biocenter) or the QuantiTect® Reverse Transcription Kit (Qiagen), following the respective protocols. Quantitative RT -PCR was performed on a LightCycler® 480 instrument (Roche Life Science) using the TATAA SYBR® Gr andMaster® Mix (TATAA […]
Biocenter). Gene expression levels were normalized to RPLP0, and relative expression was calculated using the ΔΔCt method. Data were expressed as fold change relative to the corresponding DMSO control. Statistical analysis of changes in gene expression was performed w ith a ratio paired t-test corrected for multiple comparisons using Holm-Šídák's method (α = 0.05) in GraphPad Prism (v 10.6.1).
Table S1. Sequences of primer pairs used in the qRT -PCR analysis of gene expression.

Row | SMILES | Geometric mean, Treatment (Control = 1) [1] | Geometric mean, Treatment (Control = 1) (reactive oxygen species; 5 μM) | Geometric mean, Treatment (Control = 1) (reactive oxygen species; 25 μM) | Ub-G76V-GFP reporter assay, mean [2] | Proteasome chymotrypsin-like activity in MCF-7 cells ([1]; 5 μM, 16 h)
1 | COc1ccc(/C=C2\CC(NC(=O)c3ccccn3)C/C(=C\c3ccc(OC)c(OC)c3)C2=O)cc1OC (stereo not shown) [RUN-94] | 1.26 | 0.97 | 1.00 | 1.19 | –
2 | COc1ccc(/C=C2\CC(NC(=O)C3CCCC3)C/C(=C\c3ccc(OC)c(OC)c3)C2=O)cc1OC (stereo not shown) [RUN-89] | 1.38 | 1.09 | 1.13 | 1.17 | greatest increase
3 | COc1ccc(/C=C2\CC(N)C/C(=C\c3ccc(OC)c(OC)c3)C2=O)cc1OC (stereo not shown) [RUN-81] | 1.11 | 0.96 | 0.99 | 1.14 | –
